# Like-named read-outs stand apart in the source and are kept apart here. Where a SMILES comes first, the peptide text is derived from it. Where no end group is shown, it is not given here. The star is where a group is joined. Benzoyl(4-F) = O=C(c1ccc(F)cc1)*
# Tests used:
# αvβ6 integrin = target: T1, αvβ6 integrin (Homo sapiens, UniProt P06756+P18564); assay: Competitive binding ELISA of [19F]FBA peptides for integrin αvβ6
# T1 construct: purchased R&D systems (Minneapolis, Minn.)
# Protocol: Affinity of each peptide was assessed ELISA on Nunc Maxisorp Flat-bottom 96 well plates (affymetrix ebioscience, San Diego, Calif.). Integrin alpha V antibody P2W7 was purchased from Novus Biologicals (Littleton, Colo.). Bovine serum albumin (BSA) was purchased from VWR (Randor, Pa.) and TMB one solution was purchased from Promega (Madison, Wis.). αvβ6 integrin was purchased from R&D systems (Minneapolis, Minn.). Protein biotinylation kit was purchased from Amersham plc (Amersham, UK) while competing natural ligand fibronectin was purchased from Invitrogen (Carlsbad, Calif.). Affinity was measured in absorbance units by the Thermo Multiscan Plate reader with associated Ascent Software (Thermofisher, Waltham, Mass.).
# The peptides were allowed to compete for 1 h with biotinylated fibronectin, a natural ligand for αvβ6; or biotinylated vitronectin, when competing against αvβ3. Briefly, a 96-well plate was coated with 50 μL/well of 5 μg/mL P2W7 in phosphate buffered saline (PBS) at 37° C. for 1 h. The plate was washed three times with PBS followed by treatment with PBS containing 5% bovine serum albumin (BSA; fraction V; w/v) and 1% Tween 20 (v/v) at 4° C. for 16 h to block nonspecific binding. The plate was washed with PBS and coated with 50 μL/well integrin in wash buffer (WaB) for 1 h and then washed three times with WaB. WaB consisted of a solution of 2 mmol/L Tris buffer (pH 7.6), 150 mmol/L sodium chloride, 1 mmol/L manganese chloride, and 0.1% Tween 20 (v/v) in deionized water. Triplicate wells were coated with 50 μL/well of a mixture of equal volumes of biotinylated fibronectin (BtFn) for αvβ6, or biotinylated vitronectin (BtVn) for αvβ3, in conjugate buffer, consisting of 1% BSA (fraction V; w/v) in WaB, and a serial dilution of peptide stock (2 mmol/L; 10% DMSO (v/v) in water) from 1 μM to 1 pM. Wells containing no peptide, no peptide and no antibody, or no peptide and no ligand served as controls. The plate was incubated for 1 h at room temperature and washed three times with WaB before ExtrAvidin-horseradish peroxidase conjugate was added (50 μL/well, 1:1,000 dilution in conjugate buffer) at room temperature for 1 h. After washing with WaB, bound BtFn or BtVn was detected by addition of TMB (50 μL/well) and incubation for 10 to 15 min. The reaction was terminated by adding 50 μL/well […] sulfuric acid and absorbance was measured at 450 nm (yellow color of acidified oxidized TMB, indicating fibronectin binding). Calculations of IC50 values are based on data analysis with Prism software (GraphPad Software).
# [1] = tested on: integrin αvβ6-expressing DX3puroβ6 cell line; assay: Cell binding and internalization of radiotracers, DX3puroβ6 cells; type: cell-based, human; conditions: for Affinity and selectivity for the αvβ6(+)-expressing cell line DX3puroβ6, in words: cell binding vs DX3puro control
# [2] = tested on: αvβ6-negative DX3puro control cell line; assay: Cell binding and internalization of radiotracers, DX3puro control cells; type: cell-based, human
# [3] = tested on: BxPC-3 cells (endogenous αvβ6(+)-expression); conditions: 60 min incubation
# [4] = tested on: BxPC-3 tumors (endogenous αvβ6-expression); conditions: 1 h; blocking with 30 mg/kg FBA-PEG28-A20FMDV2 at T=−10 min
# Protocol: (PBS) or 37° C. (serum), followed by analysis on radio HPLC. Data are expressed as % probe remaining intact in sample. […] Tumor models—DX3puroβ6/DX3puro: Human melanoma cell line. DX3puroβ6 has been stably transfected to express integrin αvβ6. DX3puro is negative control cell line. […] BxPC-3: Pancreatic cell line with endogenous αvβ6-expression. MIA PaCa-2: Pancreatic cell line, no αvβ6-expression.
# T1 sequence (P06756 31-889 limits assumed): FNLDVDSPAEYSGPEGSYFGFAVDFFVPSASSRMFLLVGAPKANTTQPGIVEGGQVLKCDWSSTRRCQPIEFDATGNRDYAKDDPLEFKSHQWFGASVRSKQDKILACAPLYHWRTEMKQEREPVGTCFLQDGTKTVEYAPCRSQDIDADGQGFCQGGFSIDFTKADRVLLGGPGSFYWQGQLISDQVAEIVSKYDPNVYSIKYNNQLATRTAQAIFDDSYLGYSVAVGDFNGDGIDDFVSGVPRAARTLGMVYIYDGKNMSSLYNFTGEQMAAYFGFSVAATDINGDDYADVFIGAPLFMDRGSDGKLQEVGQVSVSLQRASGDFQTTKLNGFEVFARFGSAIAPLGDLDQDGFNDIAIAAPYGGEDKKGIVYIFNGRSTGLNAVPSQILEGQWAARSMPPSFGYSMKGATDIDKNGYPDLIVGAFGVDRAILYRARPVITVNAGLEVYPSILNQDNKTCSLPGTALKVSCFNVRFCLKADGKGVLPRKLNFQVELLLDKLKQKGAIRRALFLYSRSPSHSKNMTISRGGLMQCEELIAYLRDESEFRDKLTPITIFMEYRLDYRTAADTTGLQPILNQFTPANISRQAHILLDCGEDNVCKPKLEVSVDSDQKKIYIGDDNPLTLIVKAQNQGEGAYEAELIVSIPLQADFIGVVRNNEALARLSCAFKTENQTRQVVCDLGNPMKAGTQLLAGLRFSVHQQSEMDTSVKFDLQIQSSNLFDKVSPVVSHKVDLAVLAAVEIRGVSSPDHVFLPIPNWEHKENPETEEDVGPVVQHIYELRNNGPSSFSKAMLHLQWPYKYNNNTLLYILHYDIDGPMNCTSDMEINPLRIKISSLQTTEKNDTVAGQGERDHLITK
# T1 sequence (P06756 891-992 limits assumed): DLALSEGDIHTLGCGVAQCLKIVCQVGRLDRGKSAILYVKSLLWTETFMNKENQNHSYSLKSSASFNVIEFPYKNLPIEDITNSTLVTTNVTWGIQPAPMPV
# T1 sequence (P18564 22-707 limits assumed): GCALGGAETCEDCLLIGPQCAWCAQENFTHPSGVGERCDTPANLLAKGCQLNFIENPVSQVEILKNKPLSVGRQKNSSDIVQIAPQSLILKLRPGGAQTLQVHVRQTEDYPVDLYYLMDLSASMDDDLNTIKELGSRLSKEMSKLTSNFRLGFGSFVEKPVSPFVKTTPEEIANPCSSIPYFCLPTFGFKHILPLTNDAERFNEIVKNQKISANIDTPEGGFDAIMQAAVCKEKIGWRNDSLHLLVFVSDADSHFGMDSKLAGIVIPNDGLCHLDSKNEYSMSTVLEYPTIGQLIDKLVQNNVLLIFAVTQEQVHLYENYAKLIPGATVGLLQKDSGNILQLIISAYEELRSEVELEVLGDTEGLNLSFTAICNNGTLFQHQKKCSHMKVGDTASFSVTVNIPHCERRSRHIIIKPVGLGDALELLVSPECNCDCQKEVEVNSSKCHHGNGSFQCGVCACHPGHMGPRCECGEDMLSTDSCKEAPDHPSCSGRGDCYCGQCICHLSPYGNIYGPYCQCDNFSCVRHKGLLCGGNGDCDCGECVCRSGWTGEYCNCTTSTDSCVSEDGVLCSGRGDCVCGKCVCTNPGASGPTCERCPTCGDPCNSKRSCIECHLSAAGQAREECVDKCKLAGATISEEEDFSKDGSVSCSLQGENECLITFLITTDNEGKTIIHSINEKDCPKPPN
molecule,measurement,setting,value
CC(C)C[C@H](NC(=O)[C@H](CC(=O)O)NC(=O)[C@H](CO)NC(=O)[C@H](CCCNC(=N)N)NC(=O)c1ccc(F)cc1)C(=O)N[C@H](C(=O)N1CCC[C@H]1C(=O)N[C@@H](CC(C)C)C(=O)N[C@@H](Cc1ccccc1)C(N)=O)[C@@H](C)O ({Benzoyl(4-F)}-RSDLTPLF-NH2),IC50,αvβ6 integrin,7 nM
D(KLAKLAK)2-GG-PEG28-A20FMDV2-K,"Affinity and selectivity for the αvβ6(+)-expressing cell line DX3puroβ6, in words",[1],"does not affect its affinity, specificity, and internalization-potential"
PEG28-A20FMDV2-GG-D(KLAKLAK)2-K,"Affinity and selectivity for the αvβ6(+)-expressing cell line DX3puroβ6, in words",[1],"does not affect its affinity, specificity, and internalization-potential"
PEG28-A20FMDV2(K16R)-PEG28,Internalization in αvβ6 cells,"[1]; 1 h, basis not given",> 50%
same,Binding to DX3puroβ6 cells (fraction of total radioactivity),[1]; 60 min incubation,> 70%
"c(RSDLTPLFE)K([^19F]FBA)-NH2 (RSDLTPLFEK((19F)FBA)-NH2; bridge (positions not given here); also: residues 1-9 cyclized, mode not given here)",IC50,"αvβ6 integrin; ELISA, calculated by PRISM, read-out: IC50 against αvβ6",> 300 nM
18F-FBA-PEG28-A20FMDV2-PEG28 [compound 5],Binding to DX3puro control cells,[2]; 60 min incubation,3.5±0.2%
same,Internalization into DX3puro control cells,[2]; 60 min incubation,0.9±0.1%
same,Binding to DX3puroβ6 cells (fraction of total radioactivity),[1]; 60 min incubation,51.0±0.9%
same,Internalization into DX3puroβ6 cells (of total radioactivity),[1]; 60 min incubation,33.5±1.8%
same,Binding to BxPC-3 cells (fraction of total radioactivity),[3],37.2±1.9%
same,Internalization into BxPC-3 cells (of total radioactivity),[3],28.4±0.9%
same,Reduction of BxPC-3 tumor uptake vs unblocked,[4],92%
CC(C)C[C@H](NC(=O)[C@H](CC(=O)O)NC(=O)CNC(=O)[C@H](CCCNC(=N)N)NC(=O)[C@H](CC(C)C)NC(=O)[C@H](CC(N)=O)NC(=O)[C@@H]1CCCN1C(=O)[C@@H](NC(=O)[C@H](C)NC(=O)[C@H](CC(N)=O)NC(=O)CCOCCOCCOCCOCCOCCOCCOCCOCCOCCOCCOCCOCCOCCOCCOCCOCCOCCOCCOCCOCCOCCOCCOCCOCCOCCOCCOCCOCCNC(=O)c1ccc(F)cc1)C(C)C)C(=O)N[C@@H](CCC(N)=O)C(=O)N[C@H](C(=O)N[C@@H](CC(C)C)C(=O)N[C@@H](C)C(=O)N[C@@H](CCC(N)=O)C(=O)N[C@@H](CCCCN)C(=O)N[C@H](C(=O)N[C@@H](C)C(=O)N[C@@H](CCCNC(=N)N)C(=O)N[C@H](C(=O)NCCOCCOCCOCCOCCOCCOCCOCCOCCOCCOCCOCCOCCOCCOCCOCCOCCOCCOCCOCCOCCOCCOCCOCCOCCOCCOCCOCCOCCC(N)=O)[C@@H](C)O)C(C)C)C(C)C [PEGylated A20FMDV2 not bearing K(IPA)E],"Binding and internalization in DX3puro control, in words",[2],low
same,Binding to DX3puroβ6 cells (fraction of total radioactivity),[1]; 60 min incubation,52%
same,"Internalized share of bound radioactivity, DX3puroβ6 cells",[1]; of bound radioactivity,44%
CC(C)C[C@H](NC(=O)[C@H](CC(=O)O)NC(=O)[C@H](CO)NC(=O)[C@@H](N)CCCNC(=N)N)C(=O)N[C@H](C(=O)N1CCC[C@H]1C(=O)N[C@@H](CC(C)C)C(=O)N[C@@H](Cc1ccccc1)C(N)=O)[C@@H](C)O (H-RSDLTPLF-NH2),IC50,αvβ6 integrin,7 nM
same,Selectivity for αvβ6 over αvβ3,αvβ6 integrin,100 times

# — patent publication US11485758B2, “Bi-terminal pegylated integrin-binding peptides and methods of use thereof” (The Regents of the University of California, priority 2014, dated 2022)
